Experimental data published in ChEMBL document CHEMBL2202954, “The effect of PLC-γ2 inhibitors on the growth of human tumour cells” (2012).

Tests used:
Assay type in all cases: functional
BT-549 = assay: Cytotoxicity against human BT549 cells assessed as cellular growth at 10 uM by SRB assay
MDA-MB-231 = assay: Cytotoxicity against human MDA-MB-231 cells assessed as cellular growth at 10 uM by SRB assay
UO-31 = assay: Cytotoxicity against human UO31 cells assessed as cellular growth at 10 uM by SRB assay
SN12C = assay: Cytotoxicity against human SN12C cells assessed as cellular growth at 10 uM by SRB assay
A498 = assay: Cytotoxicity against human A498 cells assessed as cellular growth at 10 uM by SRB assay
OVCAR-8 = assay: Cytotoxicity against human OVCAR8 cells assessed as cellular growth at 10 uM by SRB assay
OVCAR-4 = assay: Cytotoxicity against human OVCAR4 cells assessed as cellular growth at 10 uM by SRB assay
OVCAR-5 = assay: Cytotoxicity against human OVCAR5 cells assessed as cellular growth at 10 uM by SRB assay
IGROV-1 = assay: Cytotoxicity against human IGROV1 cells assessed as cellular growth at 10 uM by SRB assay
SK-MEL-28 = assay: Cytotoxicity against human SK-MEL-28 cells assessed as cellular growth at 10 uM by SRB assay
SK-MEL-2 = assay: Cytotoxicity against human SK-MEL-2 cells assessed as cellular growth at 10 uM by SRB assay
Malme-3M = assay: Cytotoxicity against human MALME-3M cells assessed as cellular growth at 10 uM by SRB assay
SF-295 = assay: Cytotoxicity against human SF295 cells assessed as cellular growth at 10 uM by SRB assay
HT-29 = assay: Cytotoxicity against human HT-29 cells assessed as cellular growth at 10 uM by SRB assay
HOP-92 = assay: Cytotoxicity against human HOP92 cells assessed as cellular growth at 10 uM by SRB assay
EKVX = assay: Cytotoxicity against human EKVX cells assessed as cellular growth at 10 uM by SRB assay
MOLT-4 = assay: Cytotoxicity against human MOLT4 cells assessed as cellular growth at 10 uM by SRB assay
HL-60(TB) = assay: Cytotoxicity against human HL-60(TB) cells assessed as cellular growth at 10 uM by SRB assay
DU-145 = assay: Cytotoxicity against human DU145 cells assessed as cellular growth at 10 uM by SRB assay
SR = assay: Cytotoxicity against human SR cells assessed as cellular growth at 10 uM by SRB assay

Row | SMILES | Activity (BT-549) [%] | Activity (MDA-MB-231) [%] | Activity (UO-31) [%] | Activity (SN12C) [%] | Activity (A498) [%] | Activity (OVCAR-8) [%] | Activity (OVCAR-4) [%] | Activity (OVCAR-5) [%] | Activity (IGROV-1) [%] | Activity (SK-MEL-28) [%] | Activity (SK-MEL-2) [%] | Activity (Malme-3M) [%] | Activity (SF-295) [%] | Activity (HT-29) [%] | Activity (HOP-92) [%] | Activity (EKVX) [%] | Activity (MOLT-4) [%] | Activity (HL-60(TB)) [%] | Activity (DU-145) [%] | Activity (SR) [%]
1 | Clc1ccccc1Nc1nnc(-c2ccncc2)s1 | 90.37 | 107.89 | 90.67 | 86 | 92.09 | 100.07 | 94.51 | 106.94 | 100.52 | 100.34 | 106.68 | 108.85 | 88.68 | 105.3 | 93.87 | 91.68 | 93.42 | 79.12 |  | 
2 | O=C(NCc1cccnc1)c1sc2cc([N+](=O)[O-])ccc2c1Cl | 97.89 | 117.28 | 76.73 | 92.4 | 66.73 | 96.34 | 102.6 | 105.26 | 106.67 | 110.01 |  | 105.28 | 92.94 | 106.56 | 98.76 | 90.5 | 93.36 | 110.91 | 105.44 | 
3 | COc1cc(/C=c2/sc3nc4ccccc4n3c2=O)cc(I)c1O | 102.32 | 107.43 | 70.56 | 101.23 | 69.55 | 97.39 | 96.8 | 102.12 | 110.46 | 111.82 | 104.64 | 109 | 88.17 | 104.58 | 93.81 | 92.52 | 78.31 | 81.81 | 102.39 | 
4 | O=C1N=C(c2ccccc2)S/C1=C\c1ccc2c(c1)OCO2 | 108.62 | 104.95 | 86.92 | 94.15 | 80.95 | 96.76 | 100.96 | 92.58 | 101.91 | 106.02 | 110.33 | 94.49 | 97.51 | 101.51 | 71.22 | 98.04 | 109.24 | 111.12 | 102.97 | 
5 | Cc1ccc(NC(=O)c2sc3nc4c(cc3c2N)C(=O)CCC4)c(Br)c1 | 113.85 | 118.27 | 94.06 | 94.31 | 83.73 | 98.57 | 105.66 | 105.13 | 112.76 | 107.72 |  | 95.81 | 91.32 | 107.12 | 107.03 | 89.55 | 103.27 | 111.67 | 108.79 | 
6 | O=S(=O)(Oc1ccc(-c2cnc3ccccc3n2)cc1)c1ccc2ccccc2c1 | 122.04 | 103.12 | 118.94 | 92.04 | 85.21 | 110.71 |  | 109.35 |  | 112.84 | 107.17 |  | 102.68 | 82.27 | 101.74 | 94.26 | 89.91 | 87.7 | 104.01 | 93.61
7 | N#Cc1ccc(-n2nnc3ccccc32)cc1C#N | 106.48 | 111.41 | 88.55 | 101.03 | 72.76 | 99.01 | 110.46 | 110.44 | 103.62 | 104.11 |  | 96.58 | 91.5 | 108.03 | 103.19 | 79.18 | 93.32 | 107.7 | 93.52 | 
8 | Cc1ccc(CNC(=O)c2[nH]c3ccccc3c2Cl)cc1 | 115.69 | 112.08 | 110.2 | 99.14 | 69 | 99.35 | 101.65 | 108.38 | 99.38 | 113.18 | 99.35 | 116.06 | 94.21 | 100.16 | 81.7 | 91.13 | 91.47 | 113.42 | 97.89 | 
9 | CC1(C)CCc2cc(-c3ccn(S(=O)(=O)c4ccccc4Cl)n3)ccc2O1 | 99.65 | 99.59 | 90.06 | 75.88 | 71.86 | 89.74 |  | 92.37 | 113.61 | 99.8 | 102.25 | 98.68 |  | 33.37 | 49.12 | 67.03 | 64.66 | 81.19 | 93.97 | 72.9
10 | Cc1ccc(Cl)cc1NC(=O)c1sc2nc3c(cc2c1N)C(=O)CCC3 | 93.5 | 80.03 | 83.44 | 80.57 | 51.16 | 89.97 | 90.15 | 94.25 | 75.72 | 67.01 | 64.51 | 81.13 | 4.01 | 28.78 | 56.86 | 75.28 | 84.85 | 82.22 | 77.37 | 68.85
11 | O=C(NCCc1ccccc1)c1cc2cccc([N+](=O)[O-])c2[nH]1 | 99.6 | 77.17 | 62.13 | 94.11 | 117.41 | 94.36 | 75.65 | 116.02 | 101.06 | 99.12 | 101.4 |  | 92.52 | 99.19 | 84.88 | 83.28 | 91.34 | 114.53 | 112.66 | 91.6
12 | O=C(Nc1ccc2oc(=O)ccc2c1)c1ccc(-c2ccc(Br)cc2)o1 | 118.79 | 104.85 | 127.52 | 99.06 | 101.8 | 101.05 |  | 121.34 | 126.49 | 119.2 | 121.49 | 130.92 |  | 108.43 | 97.44 | 113.5 | 96.93 | 101.52 | 109.38 | 102.2
13 | O=C(NCCc1ccccc1)c1[nH]c2ccccc2c1Cl | 91.75 | 80.08 | 57.64 | 97.03 | 81.46 | 84.42 | 82.6 | 104.54 | 82.65 | 106.79 | 129.02 | 109.22 | 82.28 | 100.49 | 72.64 | 57.12 | 70.04 | 90.02 | 91.9 | 
14 | O=c1/c(=C/c2ccc(Cl)cc2Cl)sc2nc(-c3ccccc3)nn12 | 122.09 | 98.54 | 114.46 | 94.22 | 112.37 | 110.37 |  |  | 130.42 | 117.34 | 107.26 | 136.07 | 118.28 | 115.55 | 104.34 | 111.1 | 88.5 | 91.7 | 102.1 | 94.63
15 | Nc1c(C(=O)Nc2ccccc2F)sc2nc3c(cc12)C(=O)CCC3 | 59.83 | 48.88 | 76 | 49.76 | -1.01 | 58.62 |  | 71.12 |  | 64.11 | 42.64 |  | 3.17 | 12.19 | 53.65 | 56.31 | 73.64 | 3387 | 8.4 | 36.7
16 | Cc1c(OCC(=O)c2ccccc2)ccc2c1oc(=O)c1ccccc12 | 120.42 | 104.28 | 107.51 | 101.41 | 91.47 | 99.11 | 106.31 | 108.12 | 115.73 | 113.56 | 125.14 | 120.27 | 99.54 | 100.17 | 103.71 | 99.55 | 90.5 | 111.36 | 106.9 | 
17 | CC1(C)CCc2cc(-c3ccn(S(=O)(=O)c4ccc(Cl)cc4)n3)ccc2O1 | 88.83 | 76.35 | 75.63 | 72.79 | 70.82 | 86.61 |  | 100.71 |  | 94.67 | 92.25 |  | 78.68 | 70.86 | 8 | 54.5 | 65.38 | 71.91 | 88.3 | 45.51
18 | COc1ccc(S(=O)(=O)n2ccc(-c3ccc4c(c3)CCC(C)(C)O4)n2)cc1 | 65.47 | 87.67 | 78.12 | 97.48 | 89.14 | 83.81 | 52.32 | 108.8 | 90.82 | 98.27 | 84.41 | 109.7 | 47.66 | 84.48 | 61.38 | 51.56 | 65.89 | 60.02 |  | 
